Patent US8575187B2, “Combinations of anilinopyrimidines and pyrion compounds” (Janssen Pharmaceutica, NV, priority 2008, dated 2013)

Key:
Type in all cases: cell-based
[1] = test system: Staphylococcus aureus (g+) LMG 8064; test: Poison Plate Assay, bacteria on Tryptose Agar; details: ppm total active ingredient, growth evaluated after five days, 27° C.
Method: (§1) Experiment 1: Poison Plate Assay
(§2) • pyrimethanil (I-a) • cyprodinil (I-b) • mepanipyrim (I-c) Name of Component (II): • 1-hydroxy-2-pyridinone (II-a) • ciclopirox (II-b) • ciclopirox olamine (II-c) • piroctone (II-d) • piroctone olamine (II-e) • rilopirox (II-f) • pyrion disulfide (II-g) • sodium pyrithione (II-h) • zinc pyrithione (II-i) Test Models: • Fungi: to each well of a 24-well microtiter plate, 1000 μl of Glucose Agar (GA: 10 g glucose, 1.5 g K2HPO4, 2 g KH2PO4, 1 g (NH4)2SO4, 0.5 g MgSO4 and 12.5 g agar in 1 liter deionised water) containing the appropriate combination of the test compounds in one of the concentrations of a dose series is added. The nutrient medium is inoculated with the test fungi by adding a spore/mycelium suspension (10 μl) or a small piece of agar from the margin of an actively growing colony and incubated under dark at 27° C. with 70% relative humidity. […] The nutrient medium is inoculated by adding 10 μl of an actively growing liquid culture of the test bacteria in tryptose broth (without agar), and incubated under dark at 27° C. with 70% relative humidity. The growth is evaluated after five days. Concentrations: • Synergy experiment with hydroxypyridone: • MIC values for single compounds were collected from previous screening experiments. These MIC values were used as a guide in determining of the most suitable test dose ranges. For the combination experiments, two overlapping dose series were used, in order to maximise the chance of the MIC values falling within the test concentration range for all combinations: • Series 1: 50.00-37.50-28.13-21.09-15.82-11.87-8.90-6.67-5.01-3.75-2.82-2.11 ppm • Series 2: 25.00-18.75-14.06-10.55-7.91-5.93-4.45-3.34-2.50-1.88-1.41-1.06 ppm • Synergy experiments with bispyrithione and sodium pyrithione: 10.00-7.50-5.63-4.22-3.16-2.37-1.78-1.33-1.00-0.75-0.56-0.42 ppm
(§3) (2000) “Measuring synergy” cosmetics & Toiletries 115(11): 59-62; and Lada, A., A. N. Petrocci, H. A. Green, and J. J. Merianos (1977) “Antimicrobial composition” U.S. Pat. No. 4,061,750, 3 pp.): […]

[2] = test system: Chaetomium globosum ATCC6205; test: Poison Plate Assay, fungi on Glucose Agar; details: % (I-a) + % (II-g), ppm total active ingredient, growth evaluated after two weeks, 27° C.
Method: as §1, §2, §3

[3] = test system: Ulocladium atrum IMI214699a; test: Poison Plate Assay, fungi on Glucose Agar; details: % (I-a) + % (II-h), ppm total active ingredient, growth evaluated after two weeks, 27° C.
Method: as §1, §2, §3

[O-][n+]1ccccc1SSc1cccc[n+]1[O-] [(I-a) + (II-g) 0 + 100, pyrion disulfide]
MIC ([1]; LMG8064, 120 h, % (I-a) + % (II-g), read-out: MIC-values (minimum inhibitory concentration) in ppm): 213 µg/mL | MIC ([2]; ATCC6205, 336 h, read-out: MIC-values (minimum inhibitory concentration) in ppm): 40 µg/mL

Cc1cc(C)nc(Nc2ccccc2)n1 [(I-a) + (II-h) 100 + 0, pyrimethanil]
MIC-values (minimum inhibitory concentration) in ppm ([1]; % (I-a) + % (II-h)): 4.22 ppm | MIC-values (minimum inhibitory concentration) in ppm [3]: 3.16 ppm

Cc1cc(C)nc(Nc2ccccc2)n1 [(I-a) + (II-g) 100 + 0, pyrimethanil]
MIC-values (minimum inhibitory concentration) in ppm ([1]; % (I-a) + % (II-g)): 3.16 ppm | MIC-values (minimum inhibitory concentration) in ppm [2]: 1.78 ppm
